Data as given in the kinase profiling compilation of Christmann-Franck et al. (2016).

Experiments:
Conditions in all cases: compound 10.0 µM
PI4KB (human) = PI4KB (human) (UniProt Q9UBF8)
WEE1 (human) = WEE1 (human) (UniProt P30291)
YES1 (human) = YES1 (human) (UniProt P07947)
PDGFRA (human) = PDGFRA (human) (UniProt P16234)
ERBB3 (human) = ERBB3 (human) (UniProt P21860)
AXL (human) = AXL (human) (UniProt P30530)
[1] = system: MET (human), P08581 [Y1235D]
LTK (human) = LTK (human) (UniProt P29376)
ACVR2B (human) = ACVR2B (human) (UniProt Q13705)
MAP4K2 (human) = MAP4K2 (human) (UniProt Q12851)
MARK3 (human) = MARK3 (human) (UniProt P27448)
MARK1 (human) = MARK1 (human) (UniProt Q9P0L2)
Chain of MARK1 (human) (Q9P0L2 whole entry, looked up): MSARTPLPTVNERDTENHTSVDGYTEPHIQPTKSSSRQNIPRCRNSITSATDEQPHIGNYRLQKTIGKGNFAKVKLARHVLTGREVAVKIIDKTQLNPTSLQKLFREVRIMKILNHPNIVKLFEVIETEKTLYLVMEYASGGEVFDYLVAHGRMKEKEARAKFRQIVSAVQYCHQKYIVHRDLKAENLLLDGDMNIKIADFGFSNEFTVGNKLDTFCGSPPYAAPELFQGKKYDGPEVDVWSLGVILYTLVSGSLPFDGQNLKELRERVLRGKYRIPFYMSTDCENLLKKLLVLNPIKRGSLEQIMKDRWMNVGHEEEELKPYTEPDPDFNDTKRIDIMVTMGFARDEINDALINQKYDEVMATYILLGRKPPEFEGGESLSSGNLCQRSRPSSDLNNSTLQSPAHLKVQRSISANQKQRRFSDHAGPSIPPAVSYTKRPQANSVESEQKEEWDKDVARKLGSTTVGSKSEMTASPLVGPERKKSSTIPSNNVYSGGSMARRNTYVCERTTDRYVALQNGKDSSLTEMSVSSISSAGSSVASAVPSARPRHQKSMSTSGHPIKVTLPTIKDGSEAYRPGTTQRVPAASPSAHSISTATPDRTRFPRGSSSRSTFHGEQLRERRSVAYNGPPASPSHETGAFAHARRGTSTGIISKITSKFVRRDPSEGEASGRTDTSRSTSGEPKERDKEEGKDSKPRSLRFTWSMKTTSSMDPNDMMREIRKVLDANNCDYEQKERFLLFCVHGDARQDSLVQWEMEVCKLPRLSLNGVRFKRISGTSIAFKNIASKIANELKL

GRK4 (human) = GRK4 (human) (UniProt P32298)
ACVR2A (human) = ACVR2A (human) (UniProt P27037)
STK24 (human) = STK24 (human) (UniProt Q9Y6E0)
TNNI3K (human) = TNNI3K (human) (UniProt Q59H18)
CDK13 (human) = CDK13 (human) (UniProt Q14004)
Chain of CDK13 (human) (Q14004 whole entry, looked up): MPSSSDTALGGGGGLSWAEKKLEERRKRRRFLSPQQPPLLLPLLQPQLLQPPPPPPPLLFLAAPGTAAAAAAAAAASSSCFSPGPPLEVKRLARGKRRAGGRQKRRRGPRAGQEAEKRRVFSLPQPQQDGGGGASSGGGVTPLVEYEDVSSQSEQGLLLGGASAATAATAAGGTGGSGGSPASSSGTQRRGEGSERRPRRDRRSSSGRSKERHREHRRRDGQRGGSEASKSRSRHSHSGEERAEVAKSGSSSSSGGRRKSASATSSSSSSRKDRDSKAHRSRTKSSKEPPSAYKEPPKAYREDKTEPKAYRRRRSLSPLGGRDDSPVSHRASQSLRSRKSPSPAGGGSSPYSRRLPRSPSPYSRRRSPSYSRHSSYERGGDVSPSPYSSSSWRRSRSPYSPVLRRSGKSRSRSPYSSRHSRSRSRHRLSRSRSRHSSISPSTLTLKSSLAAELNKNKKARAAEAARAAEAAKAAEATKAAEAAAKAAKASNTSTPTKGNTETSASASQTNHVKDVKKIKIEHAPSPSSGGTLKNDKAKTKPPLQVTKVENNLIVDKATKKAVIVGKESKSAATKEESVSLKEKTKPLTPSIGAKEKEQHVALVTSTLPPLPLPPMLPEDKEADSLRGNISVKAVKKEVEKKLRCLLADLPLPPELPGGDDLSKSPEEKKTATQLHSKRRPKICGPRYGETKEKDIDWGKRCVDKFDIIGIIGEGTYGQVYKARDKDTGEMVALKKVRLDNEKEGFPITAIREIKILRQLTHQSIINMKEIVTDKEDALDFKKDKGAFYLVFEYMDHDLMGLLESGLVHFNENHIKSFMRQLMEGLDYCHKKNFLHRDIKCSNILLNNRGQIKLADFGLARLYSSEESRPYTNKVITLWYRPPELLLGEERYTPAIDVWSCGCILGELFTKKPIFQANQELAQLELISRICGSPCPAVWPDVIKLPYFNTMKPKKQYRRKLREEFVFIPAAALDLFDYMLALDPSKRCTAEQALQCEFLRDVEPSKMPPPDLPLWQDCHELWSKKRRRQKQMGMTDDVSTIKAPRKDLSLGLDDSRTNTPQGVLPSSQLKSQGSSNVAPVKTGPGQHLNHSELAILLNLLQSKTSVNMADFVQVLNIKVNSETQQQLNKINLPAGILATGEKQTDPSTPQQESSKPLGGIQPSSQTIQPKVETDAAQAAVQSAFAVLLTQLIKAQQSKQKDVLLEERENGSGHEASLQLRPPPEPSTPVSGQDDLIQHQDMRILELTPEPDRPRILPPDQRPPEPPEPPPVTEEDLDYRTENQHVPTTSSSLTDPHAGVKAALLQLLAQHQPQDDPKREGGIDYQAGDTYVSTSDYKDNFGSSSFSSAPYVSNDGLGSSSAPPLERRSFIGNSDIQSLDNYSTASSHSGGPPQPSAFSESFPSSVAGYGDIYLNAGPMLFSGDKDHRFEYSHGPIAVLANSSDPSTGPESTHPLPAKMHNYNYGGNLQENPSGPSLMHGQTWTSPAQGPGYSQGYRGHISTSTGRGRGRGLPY

STK32C (human) = STK32C (human) (UniProt Q86UX6)
DMPK (human) = DMPK (human) (UniProt Q09013)
STK16 (human) = STK16 (human) (UniProt O75716)
ULK1 (human) = ULK1 (human) (UniProt O75385)
PIP4K2C (human) = PIP4K2C (human) (UniProt Q8TBX8)
BMPR2 (human) = BMPR2 (human) (UniProt Q13873)
STK38 (human) = STK38 (human) (UniProt Q15208)
Chain of STK38 (human) (Q15208 whole entry, looked up): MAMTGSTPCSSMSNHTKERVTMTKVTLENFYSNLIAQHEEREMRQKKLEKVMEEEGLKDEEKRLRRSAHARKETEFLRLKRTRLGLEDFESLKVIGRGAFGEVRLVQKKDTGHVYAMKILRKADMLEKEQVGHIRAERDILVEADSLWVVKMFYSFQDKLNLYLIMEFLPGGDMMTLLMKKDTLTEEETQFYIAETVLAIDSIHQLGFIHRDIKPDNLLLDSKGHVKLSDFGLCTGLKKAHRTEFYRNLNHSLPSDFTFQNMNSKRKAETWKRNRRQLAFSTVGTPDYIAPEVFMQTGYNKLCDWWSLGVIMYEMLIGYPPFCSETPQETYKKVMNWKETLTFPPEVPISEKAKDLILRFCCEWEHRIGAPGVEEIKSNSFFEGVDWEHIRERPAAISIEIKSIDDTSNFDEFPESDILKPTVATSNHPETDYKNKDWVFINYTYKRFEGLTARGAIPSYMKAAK

MAPKAPK2 (human) = MAPKAPK2 (human) (UniProt P49137)
Chain of MAPKAPK2 (human) (P49137 whole entry, looked up): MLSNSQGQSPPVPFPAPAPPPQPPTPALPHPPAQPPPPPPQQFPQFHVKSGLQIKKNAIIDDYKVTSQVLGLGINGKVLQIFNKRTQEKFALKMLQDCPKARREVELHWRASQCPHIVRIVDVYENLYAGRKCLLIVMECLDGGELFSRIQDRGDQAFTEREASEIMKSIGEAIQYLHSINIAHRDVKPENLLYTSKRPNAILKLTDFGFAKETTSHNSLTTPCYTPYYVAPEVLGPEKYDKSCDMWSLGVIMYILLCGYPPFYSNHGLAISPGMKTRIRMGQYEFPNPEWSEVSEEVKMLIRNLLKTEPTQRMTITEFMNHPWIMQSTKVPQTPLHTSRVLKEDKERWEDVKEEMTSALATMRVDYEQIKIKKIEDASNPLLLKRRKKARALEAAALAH

RAF1 (human) = RAF1 (human) (UniProt P04049)
Chain of RAF1 (human) (P04049 whole entry, looked up): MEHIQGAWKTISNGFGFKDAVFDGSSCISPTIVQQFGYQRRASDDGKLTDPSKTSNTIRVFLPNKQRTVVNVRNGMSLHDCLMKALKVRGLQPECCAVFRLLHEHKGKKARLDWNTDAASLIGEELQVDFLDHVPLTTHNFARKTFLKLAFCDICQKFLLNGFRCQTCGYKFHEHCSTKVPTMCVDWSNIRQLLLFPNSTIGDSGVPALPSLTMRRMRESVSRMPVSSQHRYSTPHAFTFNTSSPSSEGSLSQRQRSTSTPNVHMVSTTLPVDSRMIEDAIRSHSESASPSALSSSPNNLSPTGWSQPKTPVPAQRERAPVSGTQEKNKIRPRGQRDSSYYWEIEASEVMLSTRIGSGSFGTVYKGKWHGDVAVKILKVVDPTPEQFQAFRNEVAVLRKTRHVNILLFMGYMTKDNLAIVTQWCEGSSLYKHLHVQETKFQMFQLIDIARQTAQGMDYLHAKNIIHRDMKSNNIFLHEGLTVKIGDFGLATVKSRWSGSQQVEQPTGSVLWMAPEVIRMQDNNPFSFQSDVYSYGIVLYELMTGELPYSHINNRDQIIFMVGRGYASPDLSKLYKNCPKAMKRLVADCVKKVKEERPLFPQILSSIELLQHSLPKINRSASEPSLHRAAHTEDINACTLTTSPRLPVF

KIT (human) = KIT (human) (UniProt P10721)
BLK (human) = BLK (human) (UniProt P51451)
[2] = target: JAK1 JH2 pseudokinase (human) (UniProt P23458)
CDK19 (human) = CDK19 (human) (UniProt Q9BWU1)
Chain of CDK19 (human) (Q9BWU1 whole entry, looked up): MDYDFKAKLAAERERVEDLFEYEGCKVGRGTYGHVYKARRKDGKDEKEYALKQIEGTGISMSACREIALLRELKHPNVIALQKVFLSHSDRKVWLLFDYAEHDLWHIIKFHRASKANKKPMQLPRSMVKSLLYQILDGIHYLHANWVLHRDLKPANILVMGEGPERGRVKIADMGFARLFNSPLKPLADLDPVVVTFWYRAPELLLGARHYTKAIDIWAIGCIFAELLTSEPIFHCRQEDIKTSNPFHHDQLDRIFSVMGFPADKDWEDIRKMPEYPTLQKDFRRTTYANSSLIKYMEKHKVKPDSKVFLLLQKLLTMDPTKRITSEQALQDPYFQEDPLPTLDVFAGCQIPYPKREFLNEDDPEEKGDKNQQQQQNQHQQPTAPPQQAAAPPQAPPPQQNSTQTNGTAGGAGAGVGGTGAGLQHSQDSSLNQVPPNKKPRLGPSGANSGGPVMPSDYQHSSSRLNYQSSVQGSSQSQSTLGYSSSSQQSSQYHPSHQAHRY

ROCK2 (human) = ROCK2 (human) (UniProt O75116)
LIMK2 (human) = LIMK2 (human) (UniProt P53671)
PRKCQ (human) = PRKCQ (human) (UniProt Q04759)
EPHA7 (human) = EPHA7 (human) (UniProt Q15375)
ACVRL1 (human) = ACVRL1 (human) (UniProt P37023)
STK25 (human) = STK25 (human) (UniProt O00506)
MAPK12 (human) = MAPK12 (human) (UniProt P53778)
TYRO3 (human) = TYRO3 (human) (UniProt Q06418)
CDK2 (human) = CDK2 (human) (UniProt P24941)
CDKL3 (human) = CDKL3 (human) (UniProt Q8IVW4)
PIP5K1C (human) = PIP5K1C (human) (UniProt O60331)
CSNK1G2 (human) = CSNK1G2 (human) (UniProt P78368)

Chain of YES1 (human) (P07947 whole entry, looked up): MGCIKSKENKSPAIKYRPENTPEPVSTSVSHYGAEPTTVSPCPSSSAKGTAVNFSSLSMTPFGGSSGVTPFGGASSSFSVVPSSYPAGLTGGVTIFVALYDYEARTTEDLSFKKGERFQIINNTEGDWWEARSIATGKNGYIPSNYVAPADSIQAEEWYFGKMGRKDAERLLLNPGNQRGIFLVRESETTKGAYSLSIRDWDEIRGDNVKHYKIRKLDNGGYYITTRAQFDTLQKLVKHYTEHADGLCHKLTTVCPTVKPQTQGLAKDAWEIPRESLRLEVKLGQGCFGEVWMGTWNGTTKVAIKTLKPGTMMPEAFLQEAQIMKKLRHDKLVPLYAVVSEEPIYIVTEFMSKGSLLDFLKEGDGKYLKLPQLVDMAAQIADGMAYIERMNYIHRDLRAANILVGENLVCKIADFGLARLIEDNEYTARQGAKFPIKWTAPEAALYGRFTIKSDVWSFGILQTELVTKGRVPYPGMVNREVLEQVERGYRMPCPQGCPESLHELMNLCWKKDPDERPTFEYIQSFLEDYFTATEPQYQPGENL

Structure (SMILES): CNC(=O)c1cc(Oc2ccc(NC(=O)Nc3ccc(Cl)c(C(F)(F)F)c3)cc2)cc[n+]1[O-]
- per cent of control (PI4KB (human)): 100%
- per cent of control (WEE1 (human)): 100%
- per cent of control (YES1 (human)): 68%
- per cent of control (PDGFRA (human)): 0%
- per cent of control (ERBB3 (human)): 62%
- per cent of control (AXL (human)): 1.8%
- per cent of control [1]: 11%
- per cent of control (LTK (human)): 73%
- per cent of control (ACVR2B (human)): 22%
- per cent of control (MAP4K2 (human)): 66%
- per cent of control (MARK3 (human)): 86%
- per cent of control (MARK1 (human)): 100%
- per cent of control (GRK4 (human)): 100%
- per cent of control (ACVR2A (human)): 89%
- per cent of control (STK24 (human)): 14%
- per cent of control (TNNI3K (human)): 2.4%
- per cent of control (CDK13 (human)): 40%
- per cent of control (STK32C (human)): 87%
- per cent of control (DMPK (human)): 91%
- per cent of control (STK16 (human)): 81%
- per cent of control (ULK1 (human)): 99%
- per cent of control (PIP4K2C (human)): 16%
- per cent of control (BMPR2 (human)): 98%
- per cent of control (STK38 (human)): 100%
- per cent of control (MAPKAPK2 (human)): 100%
- per cent of control (RAF1 (human)): 0.45%
- per cent of control (KIT (human)): 0%
- per cent of control (BLK (human)): 11%
- per cent of control [2]: 96%
- per cent of control (CDK19 (human)): 0.35%
- per cent of control (ROCK2 (human)): 82%
- per cent of control (LIMK2 (human)): 59%
- per cent of control (PRKCQ (human)): 80%
- per cent of control (EPHA7 (human)): 33%
- per cent of control (ACVRL1 (human)): 96%
- per cent of control (STK25 (human)): 32%
- per cent of control (MAPK12 (human)): 0.1%
- per cent of control (TYRO3 (human)): 100%
- per cent of control (CDK2 (human)): 1.8%
- per cent of control (CDKL3 (human)): 0.3%
- per cent of control (PIP5K1C (human)): 66%
- per cent of control (CSNK1G2 (human)): 100%

Structure (SMILES): CNC(=O)c1cc(Oc2ccc(NC(=O)Nc3ccc(Cl)c(C(F)(F)F)c3)cc2)ccn1
- per cent of control (PI4KB (human)): 100%
- per cent of control (WEE1 (human)): 100%
- per cent of control (YES1 (human)): 41%
- per cent of control (PDGFRA (human)): 0%
- per cent of control (ERBB3 (human)): 70%
- per cent of control (AXL (human)): 5.4%
- per cent of control [1]: 60%
- per cent of control (LTK (human)): 76%
- per cent of control (ACVR2B (human)): 68%
- per cent of control (MAP4K2 (human)): 93%
- per cent of control (MARK3 (human)): 86%
- per cent of control (MARK1 (human)): 90%
- per cent of control (GRK4 (human)): 99%
- per cent of control (ACVR2A (human)): 100%
- per cent of control (STK24 (human)): 81%
- per cent of control (TNNI3K (human)): 2.4%
- per cent of control (CDK13 (human)): 98%
- per cent of control (STK32C (human)): 72%
- per cent of control (DMPK (human)): 90%
- per cent of control (STK16 (human)): 94%
- per cent of control (ULK1 (human)): 89%
- per cent of control (PIP4K2C (human)): 34%
- per cent of control (BMPR2 (human)): 100%
- per cent of control (STK38 (human)): 100%
- per cent of control (MAPKAPK2 (human)): 91%
- per cent of control (RAF1 (human)): 0.7%
- per cent of control (KIT (human)): 0%
- per cent of control (BLK (human)): 28%
- per cent of control [2]: 97%
- per cent of control (CDK19 (human)): 0.7%
- per cent of control (ROCK2 (human)): 90%
- per cent of control (LIMK2 (human)): 53%
- per cent of control (PRKCQ (human)): 76%
- per cent of control (EPHA7 (human)): 7.6%
- per cent of control (ACVRL1 (human)): 100%
- per cent of control (STK25 (human)): 100%
- per cent of control (MAPK12 (human)): 42%
- per cent of control (TYRO3 (human)): 100%
- per cent of control (CDK2 (human)): 15%
- per cent of control (CDKL3 (human)): 0.35%
- per cent of control (PIP5K1C (human)): 79%
- per cent of control (CSNK1G2 (human)): 100%
